Results published in patent US20240360107A1, “AN EIF4A INHIBITOR WITH A NOVEL MECHANISM OF ACTION” (ARIZONA BOARD OF REGENTS ON BEHALF OF THE UNIVERSITY OF …, priority 2021, published 2024).
Entries after “also recorded” stand apart in the source; their conditions may differ.

Legend:
[1] = target: T1, eIF4A (Homo sapiens, UniProt P60842); experiment: MANT-ATP fluorescence polarization assay; assay type: binding; parameters: 6xHis with TEV protease site (N, cleaved yes); made in house; host or cells: E. coli BL21-CodonPlus; conditions: compound 200 μM or ADP 1 mM; MANT-ATP 100 nM
Description: Additional biochemical testing was performed on compound 28 to investigate its mechanism of eIF4A inhibition. Initially, kinetics experiments were repeated with compound 28, and the results for compound 28 matched those of compound 1 (FIG. 5D, 4A). Upon addition of compound 28, Km and Vmax of eIF4A decreased with respect to ATP. With respect to RNA, eIF4A Km […] and Vmax remained constant. […] Fluorescence polarization (FP) assays were utilized to confirm this mechanism of inhibition by testing the ability of compound 28 to compete fluorescent substrates off eIF4A. First, an FP assay was performed with MANT-ATP, a fluorescent, non-hydrolysable ATP analog, as the substrate.
MANT-ATP fluorescence polarization assay. Recombinant eIF4A (15 μM) was added to a low-volume black 384 well plate (Greiner). Yeast RNA (0.25 mg/mL) was added along with compound (200 μM) or ADP (1 mM) and the plate was incubated for 20 min. MANT-ATP was added (100 nM) and the plate was incubated for 30 min before fluorescence polarization was read at 355 nm:448 nm (Ex:Em) on a SpectraMax iD5 plate reader (Molecular Devices).
Target sequence in this assay (P60842 whole entry): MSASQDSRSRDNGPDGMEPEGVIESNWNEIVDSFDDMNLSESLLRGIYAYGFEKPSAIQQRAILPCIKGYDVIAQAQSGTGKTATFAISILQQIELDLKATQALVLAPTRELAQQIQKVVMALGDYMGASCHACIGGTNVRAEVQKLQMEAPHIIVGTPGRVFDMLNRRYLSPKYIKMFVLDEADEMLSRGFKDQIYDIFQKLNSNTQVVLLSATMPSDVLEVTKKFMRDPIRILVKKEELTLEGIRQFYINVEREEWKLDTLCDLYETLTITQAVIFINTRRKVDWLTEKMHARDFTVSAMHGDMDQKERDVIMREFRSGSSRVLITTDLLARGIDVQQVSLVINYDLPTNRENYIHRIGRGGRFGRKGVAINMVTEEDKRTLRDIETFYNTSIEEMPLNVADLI

[2] = test system: BJAB Burkitt lymphoma cells; experiment: CellTiter-Glo Luminescent Cell Viability assay; assay type: cell-based; conditions: 72 h; for effect on BJAB cell viability: top concentration 10 uM
Description: Compounds 1 and compound 28 were evaluated in a CellTiter-Glo (CTG) Luminescence cell viability assay in BJAB Burkitt lymphoma cells that are known to be sensitive to eIF4A inhibition. This assay quantitates the number of living, metabolically active cells by measuring their ATP levels.
Cell viability assay. BJAB lymphoma cells were plated in quadruplicate at 5,000 cells/well in serial dilutions of drug ranging two logs with the top concentration of compounds tested at 10 uM. Viability was measured after 72 h using Cell Titer Glo (Promega G7573) following the manufacturer's protocol. Luminescence was detected on the BioTek HT Synergy plate reader and values were normalized to vehicle-treated (DMSO) wells. Silvestrol was included as a positive control (not shown).

[3] = target: T1, eIF4A; experiment: RNA-stimulated malachite green ATPase assay; assay type: biochemical; parameters: 6xHis with TEV protease site (N, cleaved yes); made in house; host or cells: E. coli BL21-CodonPlus; conditions: for potency in the eIF4A ATPase assay (in words): comparison within the series
Description: Human eIF4A protein was produced recombinantly and a greater than 100,000-compound screen for inhibitors was completed using a malachite green ATPase assay (FIG. 11A). […] A stable mixture of yeast RNAs was added in an effort to improve this system and create a more biologically relevant eIF4A assay. eIF4A ATPase activity was accelerated without a statistically significant increase in the background signal in the presence of this RNA (FIG. 11B), and the new conditions gave excellent statistical parameters in a 384-well plate format (FIG. 11C).
ATPase assay. Recombinant WT or mutant eIF4A was added to a clear bottom 384 well plate (Greiner) in ATPase buffer (20 mM Tris pH 7.4, 80 mM KCl, 2.5 mM MgCl2, 1 mM DTT, 1% glycerol). Compounds were added and the plate was incubated at 37° C. for 20 min. ATP/RNA solution was added to afford a 20 μL per well reaction volume with 750 nM eIF4A, 250 μM ATP, and 0.25 mg/mL Yeast RNA (Sigma) for the initial screen and dose responses, and varying concentrations of ATP and RNA for the kinetic assays. The plate was incubated for 4 h at 37° C. for the initial screen and dose responses, and at seven time points (1 hour-7 hours) for kinetic assays. 0.04% v/v (final concentration) Tween-20 was added to a Malachite Green solution, and the Malachite Green (40 μL per well) was added. The solution was incubated for 5 minutes at room temperature and Absorbance at 660 nm was read on a SpectraMax iD5 plate reader (Molecular Devices).
Target sequence in this assay (P60842 whole entry): as above

[4] = test system: cap-dependent translation of firefly luciferase; experiment: in vitro translation of bicistronic luciferase reporter in rabbit reticulocyte lysate, firefly luciferase; assay type: biochemical; conditions: Cycloheximide 600 μM, Silvestrol 100 nM
Excerpt: (§1) A bicistronic luciferase reporter ([…]) (FIG. 7B, top) was programmed into rabbit reticulocyte lysates, cellular extracts capable of performing both cap-dependent and Hepatitis C virus (HCV) internal ribosomal entry site (IRES)-mediated translation. eIF4A is the enzymatic driver of cap-dependent translation and is not involved in translation through HCV IRES. Compounds that inhibit eIF4A should inhibit cap-dependent translation of firefly (FF) luciferase while leaving IRES-mediated translation of Renilla (Ren) luciferase relatively unaffected. The inhibitory activities of cycloheximide, silvestrol, and 28 were assessed in this in vitro translation assay (FIG. 7B, bottom). […] The ability of compound 28 to preferentially target cap-dependent translation in a similar manner as silvestrol provides promising evidence that 28 inhibits eIF4A and not other proteins in the general translational machinery.
(§2) The dual-luciferase reporter plasmid pSP/(CAG)33/FF/HCV/Ren-pA51 was linearized with BamHI and subsequently in vitro transcribed using the Promega mMessage mMachine SP6 transcription kit, according to manufacturer's specifications. RNA was precipitated with LiCI and resuspended in H2O for use in in vitro translation experiments. Rabbit reticulocyte lysate (RRL) (nuclease-treated, Promega) was used to assess inhibitory effects of 28 on translation of the dual-reporter. Briefly, a reaction consisting of 50% RRL, 30 ng/μL reporter RNA, 10 μM Amino Acid Mixture Minus Methionine, 10 μM Amino Acid Mixture Minus Leucine, […], 1 U/μL RNAseOut (Thermo), and drug (final DMSO concentration 1%) were incubated at 30° C. for 90 minutes. The reaction was quenched with 50 μL 1× Passive Lysis Buffer (Promega), 10 μL of the mix was transferred to a 96-well white plate (Cellstar), and the Dual-Reporter Luciferase Assay System (Promega) was used to generate luminescence according to the manufacturer's instructions. Luminescence was detected using a plate reader (BioTek HT Synergy).

[5] = test system: HCV IRES-dependent translation of Renilla luciferase; experiment: in vitro translation of bicistronic luciferase reporter in rabbit reticulocyte lysate, Renilla luciferase; assay type: biochemical; conditions: Cycloheximide 600 μM, Silvestrol 100 nM
Excerpt: as §1, §2

[6] = target: T1, eIF4A; experiment: Cellular Thermal Shift Assay (CETSA) in A549 cells; assay type: cell-based; parameters: endogenous in cells; host or cells: A549 cells; conditions: 90 min, 55° C., silvestrol 100 nM
Description: In CETSA, thermal stability of a protein is assessed by heating cells and then separating insoluble, aggregated, or denatured proteins from soluble proteins through supernatant/pellet fractionation. Levels of the protein of interest (eIF4A) remaining in the soluble fraction are then measured by western blot. The principle of CETSA is similar to differential scanning fluorimetry (DSF), in that thermal stability and solubility of a protein increases upon binding a ligand.
Cellular Thermal Shift Assay (CETSA). A549 cells were seeded into wells in 6-well plates and on the following day were exposed to 28 or silvestrol (100 nM) for 90 min. Cells were harvested, resuspended in 50 μL DMEM, and dispensed into thin-walled PCR tubes. Cells were subjected to 3 min of heat at 55° C. in a thermocycler (miniPCR). After heating, cells were left to cool for 3 min and then snap-frozen on dry ice. Cells were subjected to 3 rapid freeze thaws with 15 seconds of vortexing after each thaw. After the first thaw, 1 μL of a dissolved Pierce protease inhibitor tablet (ThermoFisher—A32963) was added to the cell lysate. Cell lysates were centrifuged at 20,000×g for 20 min. […] All immunoblot images were taken using the Azure 600 imaging system (Azure Biosystems) and analyzed using ImageJ 1.51s (NIH). […]
Target sequence in this assay (P60842 2-406): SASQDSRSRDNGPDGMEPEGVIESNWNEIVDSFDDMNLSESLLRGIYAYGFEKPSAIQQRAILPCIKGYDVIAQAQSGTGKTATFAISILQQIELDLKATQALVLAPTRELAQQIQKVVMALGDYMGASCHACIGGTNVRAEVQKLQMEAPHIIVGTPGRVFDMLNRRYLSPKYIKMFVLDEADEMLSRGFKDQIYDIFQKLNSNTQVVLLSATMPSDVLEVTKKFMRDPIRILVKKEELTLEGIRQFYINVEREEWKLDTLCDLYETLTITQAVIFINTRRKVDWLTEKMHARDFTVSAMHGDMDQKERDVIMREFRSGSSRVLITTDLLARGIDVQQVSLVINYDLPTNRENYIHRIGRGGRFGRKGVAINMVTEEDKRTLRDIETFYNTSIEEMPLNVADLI

Row | SMILES | potency in the eIF4A ATPase assay (in words) [3] | effect on BJAB cell viability [2] | also measured
1 | Nc1ncnc2c1ncn2[C@@H]1O[C@H](COP(=O)(O)OP(=O)(O)O)[C@@H](O)[C@H]1O [ADP, reference compound] |  |  | competition of MANT-ATP off eIF4A [1]: able to compete MANT-ATP out of its binding pocket
2 | CCCCc1ccc(-c2ccc(-c3cc(C(=O)O)c4ccc(Cl)cc4n3)o2)cc1 [Compound 9, 2-(5-(4-butylphenyl)furan-2-yl)-7-chloroquinoline-4-carboxylic acid] | moderate potency; also recorded: performing the best in the ATPase assay of any inhibitor produced |  | EC50 ([2]; Homo sapiens, CellTiter-Glo, n=4): 4.29 ± 0.23 µM; IC50 ([3]; 750 nM eIF4A, 250 μM ATP, 0.25 mg/mL Yeast RNA, 4 h at 37° C.): 21.7 ± 3.39 µM
3 | CCCCc1ccc(-c2ccc(-c3cc(C(=O)O)c4cc(N)ccc4n3)o2)cc1 [Compound 24, 6-amino-2-(5-(4-butylphenyl)furan-2-yl)quinoline-4-carboxylic acid] | lose potency in the ATPase assay; also recorded: major losses in potency | do not decrease BJAB cellular viability | 
4 | CCCCc1ccc(-c2ccc(-c3cc(C(=O)O)c4cc(NC(C)=O)ccc4n3)o2)cc1 [Compound 25, 6-acetamido-2-(5-(4-butylphenyl)furan-2-yl)quinoline-4-carboxylic acid] | lose potency in the ATPase assay; also recorded: major losses in potency | do not decrease BJAB cellular viability | 
5 | CCCCc1ccc(-c2ccc(-c3cc(C(=O)OCC)c4cc([N+](=O)[O-])ccc4n3)o2)cc1 [Compound 29, ethyl 2-(5-(4-butylphenyl)furan-2-yl)-6-nitroquinoline-4-carboxylate] | not potent in the ATPase assay; also recorded: lost all eIF4A potency | did not inhibit cellular viability | 
6 | Nc1ccc(-c2ccc(-c3cc(C(=O)O)c4cc([N+](=O)[O-])ccc4n3)o2)cc1 [Compound 46, 2-(5-(4-aminophenyl)furan-2-yl)-6-nitroquinoline-4-carboxylic acid] | low potency; also recorded: lose potency in the ATPase assay | do not inhibit BJAB cell viability | 
7 | Nc1cccc(-c2ccc(-c3cc(C(=O)O)c4cc([N+](=O)[O-])ccc4n3)o2)c1 [Compound 47, 2-(5-(3-aminophenyl)furan-2-yl)-6-nitroquinoline-4-carboxylic acid] | low potency; also recorded: lose potency in the ATPase assay | do not inhibit BJAB cell viability | 
8 | C[C@@H]1C[C@@H]([C@H](O)CC2CC(=O)NC(=O)C2)C(=O)[C@@H](C)C1 [Cycloheximide, reference compound] |  |  | effect on cap-dependent translation (firefly luciferase) [4]: inhibits both cap-dependent and IRES-mediated translation; effect on HCV IRES-mediated translation (Renilla luciferase) [5]: inhibits both cap-dependent and IRES-mediated translation
9 | COC(=O)[C@H]1[C@@H](O)[C@@]2(O)c3c(OC)cc(O[C@@H]4O[C@@H]([C@H](O)CO)CO[C@H]4OC)cc3O[C@@]2(c2ccc(OC)cc2)[C@@H]1c1ccccc1 [silvestrol, reference compound] |  |  | effect on cap-dependent translation (firefly luciferase) [4]: inhibit cap-dependent translation of firefly luciferase; effect on HCV IRES-mediated translation (Renilla luciferase) [5]: only show a modest effect on HCV IRES-dependent translation of Renilla luciferase; thermal stability of eIF4A in cells (CETSA) [6]: increased thermal stability of eIF4A
